Test results published in patent US7125849B2, “Peptide-based angiogenesis inhibitors and methods of use thereof” (The Scripps Research Institute, priority 2003, dated 2006).
No end group written: not given here.

Key:
HMEC-1 cells = assay: Endothelial cell migration by time lapse imaging
Method: Microscopy. To assay migration, HMEC-1 cells were treated with various concentrations of either PRO polypeptide or mutant peptide prior to plating. Cells were plated on coverslips coated with about 2 μg/ml of fibronectin (FN). Dishes containing coverslips were prepared as described by Kiosses et al., and maintained at a temperature of about 37° C., under an atmosphere containing about 5% carbon dioxide as described by Schwartz, J. Cell Biol., 1993, 120:1003–1010. The cells were viewed with a Nikon DiaPhot Microscope equipped with a SenSys cooled CCD video camera linked to a Silicon Graphics workstation running the Inovision ISEE software program. At the end of the experiment, images of each cell were outlined and the centroid (cell center) calculated. Displacement of the centroid was then used to determine movement of the cell over time. Statistical analysis was performed using Microsoft EXCEL statistics software. Approximately 50 cells were filmed and tracked per experiment, with at least 3 independent experiments for both the PRO and the mutant peptide. Results were expressed as means±standard error of the mean. The Students t-test was used to determine whether the observed differences were statistically significant (p=0.05).

[1] = tested on: chorioallantoic membrane (CAM) of chick embryos; assay: Chick CAM in vivo angiogenesis assay (bFGF-induced); settings: bFGF filters, examined 3 days later, compared to untreated filters, FIG. 6
Method: Chick Cam Assays. In vivo angiogenesis assays were performed essentially as previously described by Brooks, et al., Cell, 1994, 79:1157–1164, the relevant disclosures of which are incorporated herein by reference. Filter discs saturated with 1.0 ug/ml bFGF were placed on the chorioallantoic membranes (CAMs) of 10-day-old chicken embryos, immediately followed by daily topical addition of either a PRO inhibitory peptide (20 μgs) or a control peptide ([…]) in 20 μl of fibroblast growth medium (FGM). After 72 hours, the filter discs and associated CAM tissue were harvested and quantified. Angiogenesis was assessed as the number of visible blood vessel branch points within the defined area of the filter discs. At least 20 CAMs were used for each treatment.
New blood vessels invade the filter dishes within 2–5 days, and angiogenesis can be readily detected. Filters without any additions, with control or with the PRO compound of Example 1 were implanted and examined 3 days later.

endothelial cells = assay: Contractility on flexible silicone rubber substrates (wrinkle assay); assay type: cell-based; settings: about 10 μM, FIG. 4
From the text: Contractility. To visualize cell contractility, flexible rubber substrates were generated as described by Bussolino et al., J. Biol. Chem., 1989, 264:18284–18287. Briefly, silicone rubber (polydimethylsiloxane), having a viscosity of about 10000 centistokes (Dow Corning Co.) was applied to the coverslip at the bottom of 35 mm tissue culture dishes and coated with a thin layer of gold-palladium using a Hummer VI sputter coater, which polymerized a thin layer of silicon rubber. The surface was additionally coated with about 2 μg/ml of fibronectin (FN). Treated and un-treated endothelial cells were plated on the rubber substrate and allowed to adhere. Cells that had wrinkled the substrate beneath were visualized for about 4 hours and then scored by time-lapse phase contrast microscopy. Following this period, the cells were treated with Cytochalasin D (about 1 μg/ml) (Molecular Probes) to release all wrinkles that were due to actin-dependent cell tension.
To examine effects on contractility, cells were plated on elastic substrata, as described above, that can be pulled into wrinkles by cell-generated forces.

Nck = biological target: T1, Nck (Homo sapiens, UniProt P16333); assay: Affinity chromatography of endothelial cell extracts on peptide-agarose, western blot with anti-Nck; assay type: binding; settings: detergent extracts of human endothelial cells
T1 construct: endogenous in cells; host or cells: human endothelial cells (cell type for this assay not further specified)
Method: Affinity Chromatography. PRO or control peptides containing an N-terminal cysteine were dissolved in about 1 ml of coupling buffer (50 mM tris pH 8.0, 5 mM EDTA) and about 0.5 ml at about 3 mg/ml peptide added to about 2 ml of activated thiol-Sepharose (Pharmacia). Samples were incubated at a temperature of about 4° C. overnight with 1% β-mercaptoethanol added to block unreacted sites. Beads were rinsed and stored at a temperature of about 4° C. Endothelial cell cultures in 15 cm dishes were extracted in about 1.0 ml of cold (about 4° C.), lysis buffer (20 mM pH 7.4 sodium phosphate, 100 mM NaCl, 1% Triton X-100, 10 mM NaF, 2 mM EDTA, 1 mM sodium orthovanadate, 1 mM PMSF, 10 μg/ml each of leupeptin and aprotinin). The extracts were centrifuged for about 10 minutes at top speed in a microfuge and the supernatants were then removed. A 0.5 ml sample of each extract was incubated with about 10 μl of packed beads for about 1 hour, with rotation at a temperature of about 4° C. The beads were rinsed with lysis buffer (about 4×0.5 ml) and dissolved in SDS sample buffer (about 0.04 ml). Samples were analyzed by SDS PAGE on 10% gels and immunoblotting with anti-NCK (Santa Cruz) and HRP-protein A as secondary, and then were developed and detected using enhanced chemiluminescence (ECL kit, Amersham). […]

[2] = tested on: Human umbilical vein endothelial cells (HUVECs); assay: In vitro tube formation assay in 3-dimensional matrix; assay type: cell-based; settings: about 48 hours
From the text: Formation of Three-dimensional Collagen Gels. Collagen gels were formed by mixing ice-cold gelation solution (10× M199, H2O, 0.53 mol/L NaHCO3, 200 mmol/L L-glutamine, type I collagen, 0.1 mol/L NaOH; 100:27.7:50:10:750:62.5 by volume) with cells in 1×-basal medium at a concentration of about 3×10^6 cells/ml at a ratio of about 4 volumes of gelation solution to about 1 volume of cells by the method of Yang et al. Am. J. Pathol., 1999, 155:[…] (hereinafter “Yang et al.”). The gels were allowed to form by incubation in a CO2-free incubator at a temperature of about 37° C. for about 30–60 minutes. […]
Quantification of Tube Formation. […] The total length of each tube or the long axis of single cells or groups of adjacent cells was measured, and the raw data was imported into a Microsoft Excel spread sheet. The mean tube length was determined for each well, followed by determination of the mean data and SEM for each experimental group.
As an initial test of the PRO effect on endothelial cell behavior in 3-dimensional matrices, in vitro tube formation assays in matrigel were carried out. […] Tube formation was quantitated by determining the length of endothelial cell tubes.

Substance | Endothelial cell migration rate (HMEC-1 cells; about 10 μM peptide, time lapse imaging, FIG. 3A) | Angiogenesis in CAM (vascular branch points) [1] | Cell contractility (wrinkles of elastic substratum) (endothelial cells) | Binding of Nck from endothelial cell lysates (Nck) | Migration rates over the time course (argues against toxicity) (HMEC-1 cells; FIG. 3B) | Cell number [2] | Morphology of individual cells [2]
SEQ ID NO: 5: control peptide in which the first two prolines of SEQ ID NO: 4 were replaced by the amino acids A and G (YGRKKRRQRRRGKAGAPPMRNTSTM; fusion protein fragment) | no significant effect on migration | essentially no effect | had no effect | no detectable Nck was bound | – | – | –
YGRKKRRQRRRGKPPAPPMRNTSTM [SEQ ID NO: 4] | – | – | – | – | essentially constant | nor was cell number greatly altered | not noticeably perturbed
